Key:
[1] = molecular target: T1, Type I 5α-Reductase from Human Scalp (Homo sapiens, UniProt P18405); assay: Human Type I 5α-reductase assay (conversion of [3H]-testosterone to 5α-reduced metabolites); type: biochemical; conditions: 50 nM [3H]-testosterone, pH 7.5, 25°, 180 min, compared to control reaction mixtures; for inhibition at 0.3 µM: pH 7.5, 0.3 μM, read-out: percent inhibition of Type I AR
T1 construct: Scalp punch biopsies from graft recipient sites were obtained from human hair transplant procedures; from tissue; host or cells: human scalp punch biopsies (hair transplant graft recipient sites), homogenate, 100,000×g pellet
T1 sequence (P18405 1-259): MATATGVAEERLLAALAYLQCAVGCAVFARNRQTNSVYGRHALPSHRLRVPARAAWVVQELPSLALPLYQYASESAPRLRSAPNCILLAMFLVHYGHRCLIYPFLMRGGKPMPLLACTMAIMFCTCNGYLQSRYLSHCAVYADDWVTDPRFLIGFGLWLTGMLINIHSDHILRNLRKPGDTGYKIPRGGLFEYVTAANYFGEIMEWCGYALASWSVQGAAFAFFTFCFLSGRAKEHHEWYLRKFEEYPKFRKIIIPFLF

[2] = molecular target: T2, Type II 5α-Reductase from Human Prostate (Homo sapiens, UniProt P31213); assay: Human Type II 5α-reductase assay (conversion of [3H]-testosterone to 5α-reduced metabolites); type: biochemical; conditions: sodium acetate pH 5.5, 25°, 30 min, compared to control reaction mixtures; for inhibition at 0.3 µM: pH 5.5, 0.3 μM, read-out: percent inhibition of Type II AR
T2 construct: The same procedure as above was used for preparations using tissue from prostate surgery; from tissue; host or cells: human prostate tissue from surgery, homogenate, 100,000×g pellet
T2 sequence (P31213 1-254): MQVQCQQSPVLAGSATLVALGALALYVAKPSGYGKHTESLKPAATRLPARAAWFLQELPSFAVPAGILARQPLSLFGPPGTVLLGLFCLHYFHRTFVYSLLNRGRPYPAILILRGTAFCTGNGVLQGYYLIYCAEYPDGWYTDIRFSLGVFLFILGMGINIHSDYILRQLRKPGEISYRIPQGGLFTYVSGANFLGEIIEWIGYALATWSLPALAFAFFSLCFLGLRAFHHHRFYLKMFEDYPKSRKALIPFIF

| Molecule | inhibition at 0.3 µM [1] | inhibition at 0.3 µM [2] | percent inhibition of Type I AR ([1]; 0.3 μM) | percent inhibition of Type II AR ([2]; 0.3 μM) |
| --- | --- | --- | --- | --- |
| CN1C(=O)CC[C@]2(C)c3ccc(-c4cccc(Cl)c4Cl)cc3CC[C@@H]12 [Example 73, (+)-(4aR)-(10bR)-4-methyl-8-(2,3-dichlorophenyl)-10b-methyl-1,2,3,4,4a,5,6,10b-octahydrobenzo[f]quinolin-3-one] | 87% | 16% |  |  |
| CN1C(=O)CC[C@]2(C)c3ccc(Sc4cccc5cccnc45)cc3CC[C@@H]12 [Example 110, (4aR)-(10bR)-4,10b-dimethyl-8-(8-quinolinylthio)-1,2,3,4,4a,5,6,10b-octahydrobenzo[f]quinolin-3-one] | 97% | 73% |  |  |
| CCN(CC)C(=O)c1c(-c2ccc3c(c2)CC[C@H]2N(C)C(=O)CC[C@]32C)ccc2ccccc12 [Example 35, (+)-(4aR)-(10bR)-4-methyl-8-(2-[1-diethylcarboxamido]naphthyl)-10b-methyl-1,2,3,4,4a,5,6,10b-octahydrobenzo[f]-quinolin-3-one] | 17% | 27% |  |  |
| CN1C(=O)CC[C@]2(C)c3ccc(Sc4nsc5ccccc45)cc3CC[C@@H]12 [Example 180, (+)-(4aR)-(10bR)-4-methyl-8-(3-[1,2-benzisothiazolyl]thio)-10b-methyl-1,2,3,4,4a,5,6,10b-octahydrobenzo[f]quinolin-3-one] | 59% | 30% |  |  |
| CN1C(=O)CC[C@]2(C)c3ccc(Sc4cccc5ccccc45)cc3CC[C@@H]12 [Example 103, (+)-(4aR)-(10bR)-4,10b-dimethyl-8-(1-naphthylthio)-1,2,3,4, -4a,5,6,10b-octahydrobenzo[f]quinolin-3-one] | 81% | 58% |  |  |
| CN1C(=O)CC[C@]2(C)c3ccc(-c4ccc5c(c4)C(=O)C(=O)N5)cc3CC[C@@H]12 [Example 223, (+)-(4aR)-(10bR)-4-methyl-8-(2,3-dioxo-5-indolinyl)-10b-methyl-1,2,3,4,4a,5,6,10b-octahydrobenzo[f]quinolin-3-one] | 36% | 24% |  |  |
| CN1C(=O)CC[C@]2(C)c3ccc(-c4ccc(Cl)s4)cc3CC[C@@H]12 [Example 218, (+)-(4aR)-(10bR)-4-methyl-8-(5-chloro-2-thienyl)-10b-methyl-1,2,3,4,4a,5,6,10b-octahydrobenzo[f]quinolin-3-one] | 84% | 35% |  |  |
| CN1C(=O)CC[C@]2(C)c3ccc(-c4ccc([N+](=O)[O-])cn4)cc3CC[C@@H]12 [Example 202, (+)-(4aR)-(10bR)-4-methyl-8-(5-nitro-2-pyridinyl)-10b-methyl-1,2,3,4,4a,5,6,10b-octahydrobenzo[f]quinolin-3-one] | 41% | 48% |  |  |

Continued, values first:

| inhibition at 0.3 µM [1] | inhibition at 0.3 µM [2] | percent inhibition of Type I AR ([1]; 0.3 μM) | percent inhibition of Type II AR ([2]; 0.3 μM) | Molecule |
| --- | --- | --- | --- | --- |
| 86% | 29% |  |  | CN1C(=O)CC[C@]2(C)c3ccc(-c4c(F)cc(F)cc4F)cc3CC[C@@H]12 [Example 230, (+)-(4aR)-(10bR)-4-methyl-8-(2,4,6-trifluorophenyl)-10b-methyl-1,2,3,4,4a,5,6,10b-octahydrobenzo[f]quinolin-3-one] |
|  |  | 22% | 40% | (+)-(4aR)-(10bR)-8-(3-isoquinolinyl)-10b-methyl-3,4,4a,5,6,10b-hexahydrobenzo[f]quinolin-3-one [Example 142] |
| 18% | 13% |  |  | CN1C(=O)CC[C@]2(C)c3ccc(NC(=O)c4cccc(N)c4)cc3CC[C@@H]12 [Example 270, (4aR)-(10bR)-4,10b-dimethyl-8-(3-aminobenzoylamino)-1,2,3,4,4a,5,6,10b-octahydrobenzo[f]quinolin-3-one] |
| 89% | 54% |  |  | CN1C(=O)CC[C@]2(C)c3ccc(-c4nc5ccccc5s4)cc3CC[C@@H]12 [Example 252, (+)-(4aR)-(10bR)-4-methyl-8-(2-benzothiazolyl)-10b-methyl-1,2,3,4,4a,5,6,10b-octahydrobenzo[f]quinolin-3-one] |

From patent US5622962A, “5α-reductase inhibitors” (priority 1995, dated 1997)
